Consider nine molecules from paper PMC6801822, “The Bactericidal Activity of Temporin Analogues Against Methicillin Resistant Staphylococcus aureus” (International Journal of Molecular Sciences, 2019).

Values after ≈ are worked out from the molar mass of the structure shown. Where two headings read alike, the source gives them in different places. Non-standard residues stand in square brackets, D forms with d. Residues, ends and D or L forms follow the SMILES beside them. AEEA = NCCOCCOCC(=O)O; βAla = NCCC(=O)O A value given as a limit tells only on which side of the number the result lay.

Series [1] concerns S. aureus USA300. The series is described as follows: microbe, parasite or virus in culture. Conditions: Staphylococcus aureus, MRSA / USA300, 24 h.
Description: (§1) Antimicrobial activity of peptides was analyzed through determination of MIC parameter according to the standard microdilution technique performed on 96-well plates. Mueller-Hinton broth (MHB, Sigma Aldrich, St. Louis, MO, USA) was used as the working medium for all bacterial strains. Briefly, inoculum was prepared from freshly grown cultures of bacteria being at their exponential phase of growth. Each well of 96-well plates containing 100 µL of serially diluted peptides in PBS at desired concentration was inoculated with 100 µL of 10^5 CFU/mL of bacterial suspension. Then plates were incubated overnight 37 °C and absorbance was read at 600 nm after 24 h. Wells without peptide were treated as the positive control, while uninoculated MHB was defined as the negative control. All measurements were run in triplicates.
In series [2] the test system is intracellular MRSA clinical isolate. Conditions: cited from earlier work; for MIC: MRSA clinical isolate. The source says: Cumulatively, these findings encouraged us to test the ability of the peptide conjugate to kill invasive intracellular MRSA. […] In addition, ...
The conditions of series [3]: cited from earlier work. The source says:
The efficient antibacterial activity of the DAL-PEG-DK5 conjugate may be due to the fact that it has a higher cationic charge than DK5 (+7 vs. +6, respectively). However, a α-helicity must also play an important role in this case. According to a common view about the mechanism underlying the antimicrobial activity of AMPs, formation of hel ...

The subject of series [4] is S. aureus USA300. Conditions: for MIC: USA300, 24 h.
Description: as §1
A further series deals with S. aureus Newman. Conditions: Newman, 24 h.
Series [5] has as its system S. epidermidis ATCC 12228. Conditions: ATCC 12228, 24 h.
Description: as §1
A further series deals with S. aureus ATCC 25923. Conditions: ATCC 25923, 24 h.

Description for S. aureus ATCC 25923: as §1
Description for S. aureus Newman: as §1

On to `CC(=O)NC[C@H]1CN(c2ccc(N3CCOCC3)c(F)c2)C(=O)O1` [Linezolid, linezolid], for which the MIC in the series on S. aureus USA300 [1] was 1 µg/mL (≈ 2.96 µM).

As to temporin B, the MIC in series [2] was 16 µM. Also, the “killed intracellular MRSA” value in series [2] (at 4 × MIC) was 40%.

With `CC[C@H](C)[C@H](N)C(=O)N[C@@H](CCCCN)C(=O)N[C@@H](CCCCN)C(=O)N[C@H](C(=O)N[C@@H](CC(C)C)C(=O)N[C@@H](CO)C(=O)N[C@H](CCCCN)C(=O)N[C@H](C(=O)N[C@@H](CCCCN)C(=O)N[C@@H](CCCCN)C(=O)N[C@@H](CC(C)C)C(=O)N[C@@H](CC(C)C)C(N)=O)[C@@H](C)CC)[C@@H](C)CC` [DK5] (H-IKKILS[dK]IKKLL-NH2; N-terminus assumed), the cationic charge entry in series [3] is given as “+6”. This molecule also registered an MIC in the series on S. aureus USA300 [4] greater than 190 µg/mL.

For the molecule `CC[C@H](C)[C@H](NC(=O)COCCOCCNC(=O)CNC(=O)[C@@H]1CCCN1C(=O)[C@H](CCC(=O)O)NC(=O)[C@H](CC(C)C)NC(=O)CNC(=O)[C@@H](N)CCC(=O)O)C(=O)N[C@@H](CCCCN)C(=O)N[C@@H](CCCCN)C(=O)N[C@H](C(=O)N[C@@H](CC(C)C)C(=O)N[C@@H](CO)C(=O)N[C@H](CCCCN)C(=O)N[C@H](C(=O)N[C@@H](CCCCN)C(=O)N[C@@H](CCCCN)C(=O)N[C@@H](CC(C)C)C(=O)N[C@@H](CC(C)C)C(N)=O)[C@@H](C)CC)[C@@H](C)CC` [COMB1-PEG-DK5] (H-EGLEPG[AEEA]IKKILS[dK]IKKLL-NH2; N-terminus assumed), the MIC (against S. aureus Newman; in series [5]; against S. aureus ATCC 25923; with S. aureus USA300 [4]) was greater than 190 µg/mL each time.

As for `CC[C@H](C)[C@H](N)C(=O)N[C@@H](CCCCN)C(=O)N[C@@H](CCCCN)C(=O)N[C@H](C(=O)N[C@@H](CC(C)C)C(=O)N[C@@H](CO)C(=O)N[C@H](CCCCN)C(=O)N[C@H](C(=O)N[C@@H](CCCCN)C(=O)N[C@@H](CCCCN)C(=O)N[C@@H](CC(C)C)C(=O)N[C@@H](CC(C)C)C(=O)NCCOCCOCC(=O)N[C@@H](Cc1ccc(O)cc1)C(=O)N[C@H](C)C(=O)NCC(=O)N[C@@H](Cc1ccccc1)C(=O)N[C@@H](CC(C)C)C(=O)N[C@@H](CCCNC(=N)N)C(N)=O)[C@@H](C)CC)[C@@H](C)CC` [DK5-PEG-DAL] (H-IKKILS[dK]IKKLL[AEEA]Y[dA]GFLR-NH2; N-terminus and C-terminus assumed), the α-helical content in series [3] (circular dichroism, 30 mM SDS in water) is 20%. In the series on S. aureus USA300 [4] (comparison of MIC 160 vs 40 μg/mL), the “inhibition of USA300 growth relative to DAL-PEG-DK5” value is reported as “four times less”.

Consider `CC[C@H](C)[C@H](NC(=O)COCCOCCNC(=O)[C@H](Cc1c[nH]cn1)NC(=O)CCNC(=O)[C@H](Cc1c[nH]cn1)NC(=O)CCNC(=O)[C@H](Cc1c[nH]cn1)NC(=O)CCN)C(=O)N[C@@H](CCCCN)C(=O)N[C@@H](CCCCN)C(=O)N[C@H](C(=O)N[C@@H](CC(C)C)C(=O)N[C@@H](CO)C(=O)N[C@H](CCCCN)C(=O)N[C@H](C(=O)N[C@@H](CCCCN)C(=O)N[C@@H](CCCCN)C(=O)N[C@@H](CC(C)C)C(=O)N[C@@H](CC(C)C)C(N)=O)[C@@H](C)CC)[C@@H](C)CC` [CAR3-PEG-DK5] (H-[βAla]H[βAla]H[βAla]H[AEEA]IKKILS[dK]IKKLL-NH2; N-terminus assumed), for which the MIC is greater than 190 µg/mL in the series on S. aureus Newman, 110 µg/mL (≈ 50.1 µM) in series [5], greater than 190 µg/mL with S. aureus ATCC 25923 and greater than 190 µg/mL against S. aureus USA300 [4].

Turning to `CN[C@H](CC(C)C)C(=O)N[C@H]1C(=O)N[C@@H](CC(N)=O)C(=O)N[C@H]2C(=O)N[C@H]3C(=O)N[C@H](C(=O)N[C@H](C(=O)O)c4cc(O)cc(O)c4-c4cc3ccc4O)[C@H](O)c3ccc(c(Cl)c3)Oc3cc2cc(c3O[C@@H]2O[C@H](CO)[C@@H](O)[C@H](O)[C@H]2O[C@H]2C[C@](C)(N)[C@H](O)[C@H](C)O2)Oc2ccc(cc2Cl)[C@H]1O` [Vancomycin, vancomycin], the MIC in the series with S. aureus USA300 [1] was 1 µg/mL (≈ 0.69 µM).

As for `CC[C@H](C)[C@H](NC(=O)COCCOCCNC(=O)[C@H](Cc1c[nH]cn1)NC(=O)CCN)C(=O)N[C@@H](CCCCN)C(=O)N[C@@H](CCCCN)C(=O)N[C@H](C(=O)N[C@@H](CC(C)C)C(=O)N[C@@H](CO)C(=O)N[C@H](CCCCN)C(=O)N[C@H](C(=O)N[C@@H](CCCCN)C(=O)N[C@@H](CCCCN)C(=O)N[C@@H](CC(C)C)C(=O)N[C@@H](CC(C)C)C(N)=O)[C@@H](C)CC)[C@@H](C)CC` [CAR-PEG-DK5] (H-[βAla]H[AEEA]IKKILS[dK]IKKLL-NH2; N-terminus assumed), the MIC in the series with S. aureus Newman is greater than 190 µg/mL; in series [5], 40 µg/mL (≈ 22.5 µM); against S. aureus ATCC 25923 it was greater than 190 µg/mL; against S. aureus USA300 [4] it was greater than 190 µg/mL.

In the case of temporin A, the MIC in series [2] is 8 µM. Further, the “killed intracellular MRSA” value in series [2] (at 2 × MIC) was 20%.
